The structures appear in SMILES notation.

The Kd is a measure of binding affinity in units of concentration.

The target in assay [1] is T1, nomacopan (EV576, rVA576, OmCI protein, Coversin), Ornithodoros moubata, amino acids 19 to 168 of SEQ ID NO: 2 (SEQ ID NO: 4) (Ornithodoros moubata, UniProt Q5YD59).
T1 sequence (Q5YD59 19-168): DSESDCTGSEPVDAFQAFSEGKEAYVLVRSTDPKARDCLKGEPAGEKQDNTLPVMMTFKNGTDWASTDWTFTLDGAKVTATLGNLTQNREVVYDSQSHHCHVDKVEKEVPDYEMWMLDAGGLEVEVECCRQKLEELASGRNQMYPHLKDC
Kind of assay: LTB4 binding by fluorescence titration (protein Tyr/Trp fluorescence quenching). As to the method: This may be carried out as follows:
Purified 100 nM solutions of nomacopan, in 2 mL PBS were applied in a quartz cuvette (10 mm path length; Hellma, Mülheim, Germany) equipped with a magnetic stirrer. Temperature was adjusted to 20° C. and, after equilibrium was reached, protein Tyr/Trp fluorescence was excited at 280 nm (slit width: 15 nm). The fluorescence emission was measured at 340 nm (slit width: 16 nm) corresponding to the emission maximum. […] For calculation of the KD value, data was normalized to an initial fluorescence intensity of 100%, the inner filter effect was corrected using a titration of 3 μM N-acetyl-tryptophanamide solution and data was plotted against the corresponding ligand concentration. Then, non-linear least squares regression based on the law of mass action for bimolecular complex formation was used to fit the data with Origin software version 8.5 (OriginLab, Northampton, Mass., USA) using a published formula (Breustedt et al., 2006).

Assay [2] relates to experimental autoimmune uveitis (EAU) in C57/B16 mice. Kind of assay: Experimental autoimmune uveitis (EAU), topical treatment, clinical score by fundoscopy. In kind it is in vivo, mouse. As to conditions: twice daily 2-5 μl for 7 days, Maxidex, day 21 post immunization, n=12 eyes.

`CCCCC/C=C\C[C@@H](O)/C=C/C=C/C=C\[C@@H](O)CCCC(=O)O` [LTB4, Leukotriene B4] showed a Kd in assay [1] of 200 to 300 pM.
Turning to `C[C@@H]1C[C@H]2[C@@H]3CCC4=CC(=O)C=C[C@]4(C)[C@@]3(F)[C@@H](O)C[C@]2(C)[C@@]1(O)C(=O)CO` [dexamethasone], the “clinical score compared with L-nomacopan treated mice” value in assay [2] is recorded as “in line with”.
